Earlier results as cited in patent publication US20200054560A1 (Alnova Pharmaceuticals, Ltd., priority 2017, published 2020).

Compound: CC(=O)c1c(C)c2cnc(Nc3ccc(N4CCNCC4)cn3)nc2n(C2CCCC2)c1=O [Palbociclib, 6-acetyl-8-cyclopentyl-5-methil-2-(5-piperazin-1-yl-pyridin-2-ylamino)-8H-pyrido [2,3-d] pyridin-7-one]
- solubility in N,N-dimethylformamide (N,N-dimethylformamide): slightly soluble
- solubility above pH 4 (above pH 4): reduces significantly
- solubility behaviour at or below pH 4 (at or below pH 4): high-solubility compound
- solubility in dimethyl sulfoxide (dimethyl sulfoxide): slightly soluble
- solubility in methanol (methanol): very slightly soluble
- solubility in water (water): very slightly soluble
